Data published in the supplement of paper PMC11208160.

experiment: recombinant barcode read abundance after kanamycin selection (control-corrected) (log10(CPM+1)); higher = more efficient recombination; sequences stand for … in AGTGCAGAGAAAATCGGCCAGTTTTCTCTGCCTGCAGTCCGCATGCCGT…AGATTTATGCAGCGGACTGCCTTTCTCCCAAAGTGATAAACCGGACAGTATCATGGACCGGTTTTCCCGGTAATCCGTATTTGCAAGGTTGGTTTCACT; site = the 11-nt target
Procedure, shortened: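 A vector carrying a T7-inducible recombinase and the last 73 bp of the bridge RNA received, by Gibson cloning, oligos encoding a promoter, target, barcode and the first 104 bridge RNA bases under J23119. The pooled constructs entered E. coli together with a donor plasmid by electroporation. Selection used chloramphenicol/ampicillin/kanamycin with 0.1 mM IPTG, with chloramphenicol/ampicillin LB agar as the control, each in two replicates. Recombination efficiency is the averaged, control-corrected counts-per-million of barcodes at recombinant junctions, reported as log10(CPM+1).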
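Further: IS621 recombinase and bridge RNA in Escherichia coli cells.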

Sequence | recombinant barcode read abundance (log10)
CTACAGCCTTGGGTTCTAACCTGTTGCTT (site CTACAGCCTAA) | 0.798
CTACAGCCTTGGGTTCTAACCTGTTGCTT (site CTACATCCTAA) | 0.0933
CTACCAACTTGGGTTCTAACCTGTTGCCT (site CTACCAACTAG) | 0.41
CTACCAACTTGGGTTCTAACCTGTTGCCT (site CTACCACCTAG) | 0.0179
CTACCAACTTGGGTTCTAACCTGTTGCCT (site CTACCAGCTAG) | 0.124
CTACCAACTTGGGTTCTAACCTGTTGCCT (site CTACCATCTAG) | 0.0148
CTACCAGCTTGGGTTCTAACCTGTTGCCT (site CTACCAACTAG) | 0.191
CTACCAGCTTGGGTTCTAACCTGTTGCCT (site CTACCACCTAG) | 0.0143
CTACCAGCTTGGGTTCTAACCTGTTGCCT (site CTACCAGCTAG) | 1.17
CTACCAGCTTGGGTTCTAACCTGTTGCCT (site CTACCATCTAG) | 0.0991
CTACCATCTTGGGTTCTAACCTGTTGCCG (site CTACCATCTCG) | 0.255
CTACCATCTTGGGTTCTAACCTGTTGCCG (site CTACCGTCTCC) | 0.157
CTACCCTCTTGGGTTCTAACCTGTTGCAT (site CTAACCTCTAT) | 0.026
CTACCCTCTTGGGTTCTAACCTGTTGCAT (site CTACCCTCTAT) | 2.87
CTACCCTCTTGGGTTCTAACCTGTTGCAT (site CTAGCCTCTAT) | 0.0456
CTACCCTCTTGGGTTCTAACCTGTTGCAT (site CTATCCTCTAT) | 0.413
CTACCTTCTTGGGTTCTAACCTGTTGCCT (site CAACCTTCTAG) | 0.203
CTACCTTCTTGGGTTCTAACCTGTTGCCT (site CTACCTTCTAG) | 1.37
CTACGGACTTGGGTTCTAACCTGTTGCTG (site CTACGAACTCA) | 1.82
CTACGGACTTGGGTTCTAACCTGTTGCTG (site CTACGCACTCA) | 0.206
CTACGGACTTGGGTTCTAACCTGTTGCTG (site CTACGGACTCA) | 2.77
CTACGGACTTGGGTTCTAACCTGTTGCTG (site CTACGTACTCA) | 0.0171
CTACGTACTTGGGTTCTAACCTGTTGCCT (site ATACGTACTAG) | 0.00899
CTACGTACTTGGGTTCTAACCTGTTGCCT (site CTACGTACTAG) | 1.3
CTACGTACTTGGGTTCTAACCTGTTGCCT (site GTACGTACTAG) | 0.0661
CTACGTACTTGGGTTCTAACCTGTTGCCT (site TTACGTACTAG) | 0.0415

Sequence | recombinant barcode read abundance (log10)
CTACGTACTTGGGTTCTAACCTGTTGCTG (site CTACGAACTCA) | 0.0136
CTACGTACTTGGGTTCTAACCTGTTGCTG (site CTACGCACTCA) | 0.138
CTACGTACTTGGGTTCTAACCTGTTGCTG (site CTACGGACTCA) | 0.0671
CTACGTACTTGGGTTCTAACCTGTTGCTG (site CTACGTACTCA) | 1.75
CTACTAACTTGGGTTCTAACCTGTTGCCT (site CTACTAACTAA) | 0.0105
CTACTAACTTGGGTTCTAACCTGTTGCCT (site CTACTAACTAC) | 0.0952
CTACTAACTTGGGTTCTAACCTGTTGCCT (site CTACTAACTAG) | 1.3
CTACTAACTTGGGTTCTAACCTGTTGCCT (site CTACTAACTAT) | 0.182
CTACTAGCTTGGGTTCTAACCTGTTGCAC (site CTACTAGCTAT) | 0.0299
CTACTAGCTTGGGTTCTAACCTGTTGCAC (site CTACTAGCTCT) | 0.433
CTACTAGCTTGGGTTCTAACCTGTTGCAC (site CTACTAGCTGT) | 1.66
CTACTAGCTTGGGTTCTAACCTGTTGCAC (site CTACTAGCTTT) | 0.727
CTACTTACTTGGGTTCTAACCTGTTGCCT (site CTAATTACTAG) | 0.0298
CTACTTACTTGGGTTCTAACCTGTTGCCT (site CTACTTACTAG) | 0.741
CTACTTACTTGGGTTCTAACCTGTTGCCT (site CTAGTTACTAG) | 0
CTACTTACTTGGGTTCTAACCTGTTGCCT (site CTATTTACTAG) | 0.1
CTAGAAGCTTGGGTTCTAACCTGTTGCGG (site CTAGAAGCTCC) | 1.31
CTAGAAGCTTGGGTTCTAACCTGTTGCGG (site CTGGAACCTCC) | 0.401
CTAGACTCTTGGGTTCTAACCTGTTGCTA (site CTAGACTCTAA) | 0.587
CTAGACTCTTGGGTTCTAACCTGTTGCTA (site CTAGACTCTCA) | 0.234
CTAGACTCTTGGGTTCTAACCTGTTGCTA (site CTAGACTCTGA) | 0.117
CTAGACTCTTGGGTTCTAACCTGTTGCTA (site CTAGACTCTTA) | 2.7
CTAGAGTCTTGGGTTCTAACCTGTTGCTT (site CTAGAGTCTAA) | 2.66
CTAGAGTCTTGGGTTCTAACCTGTTGCTT (site CTAGCGTCTAA) | 0.0496
CTAGATTCTTGGGTTCTAACCTGTTGCCT (site CAAGATTCTAG) | 0.167
CTAGATTCTTGGGTTCTAACCTGTTGCCT (site CCAGATTCTAG) | 0.116

Sequence | recombinant barcode read abundance (log10)
CTAGATTCTTGGGTTCTAACCTGTTGCCT (site CGAGATTCTAG) | 0.077
CTAGATTCTTGGGTTCTAACCTGTTGCCT (site CTAGATTCTAG) | 1.49
CTAGCCGCTTGGGTTCTAACCTGTTGCTT (site AGCCTATCTTG) | 0.119
CTAGCCGCTTGGGTTCTAACCTGTTGCTT (site CTAGCCGCTAA) | 1.03
CTAGCGGCTTGGGTTCTAACCTGTTGCAG (site CTAGCGGCTCT) | 2.05
CTAGCGGCTTGGGTTCTAACCTGTTGCAG (site CTAGCTCCTCT) | 0.0734
CTAGGCCCTTGGGTTCTAACCTGTTGCCT (site CTAGGCCCTAA) | 0.584
CTAGGCCCTTGGGTTCTAACCTGTTGCCT (site CTAGGCCCTAC) | 2.1
CTAGGCCCTTGGGTTCTAACCTGTTGCCT (site CTAGGCCCTAG) | 0.184
CTAGGCCCTTGGGTTCTAACCTGTTGCCT (site CTAGGCCCTAT) | 0.506
CTAGGCCCTTGGGTTCTAACCTGTTGCTT (site CTAGGCCCTAA) | 0.563
CTAGGCCCTTGGGTTCTAACCTGTTGCTT (site CTAGGCCCTAC) | 0.18
CTAGGCCCTTGGGTTCTAACCTGTTGCTT (site CTAGGCCCTAG) | 0.229
CTAGGCCCTTGGGTTCTAACCTGTTGCTT (site CTAGGCCCTAT) | 0.939
CTAGTACCTTGGGTTCTAACCTGTTGCCT (site CTAGTACCTAG) | 1.43
CTAGTACCTTGGGTTCTAACCTGTTGCCT (site TTAGTAACTAG) | 0.0602
CTAGTAGCTTGGGTTCTAACCTGTTGCGG (site CTAGTAGCTAC) | 0.553
CTAGTAGCTTGGGTTCTAACCTGTTGCGG (site CTAGTAGCTCC) | 1.56
CTAGTCCCTTGGGTTCTAACCTGTTGCCG (site CTAGTCCCTCG) | 1.79
CTAGTCCCTTGGGTTCTAACCTGTTGCCG (site TTAGTCCCTCG) | 0.176
CTAGTGGCTTGGGTTCTAACCTGTTGCCG (site CTAGTGGCTCG) | 1.3
CTAGTGGCTTGGGTTCTAACCTGTTGCCG (site TCGTCACCTAT) | 0.0446
CTATAGACTTGGGTTCTAACCTGTTGCCT (site CTATAGACTAG) | 1.11
CTATAGACTTGGGTTCTAACCTGTTGCCT (site CTATCGACTAG) | 0.163
CTATAGACTTGGGTTCTAACCTGTTGCCT (site CTATGGACTAG) | 0.475
